Measured values: PubChem BioAssay (NCI)
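All cell lines were grown in 96-well plates and treated with compound for 48 hours. GI50 marks 50% less growth. Definition used: TGI = concentration required for complete inhibition of growth.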

Columns and labels:
Test in all cases: growth of human tumour cells (NCI), 48 h
SF-295 CNS = tested on: SF-295 CNS
HT29 colon = tested on: HT29 colon
UACC-62 melanoma = tested on: UACC-62 melanoma
A549 NSCLC = tested on: A549 NSCLC
COLO 205 colon = tested on: COLO 205 colon
SNB-75 CNS = tested on: SNB-75 CNS
SR leukemia = tested on: SR leukemia
A498 renal = tested on: A498 renal
MOLT-4 leukemia = tested on: MOLT-4 leukemia
HOP-62 NSCLC = tested on: HOP-62 NSCLC
HS 578T breast = tested on: HS 578T breast
LOX IMVI melanoma = tested on: LOX IMVI melanoma
SK-OV-3 ovarian = tested on: SK-OV-3 ovarian
NCI-H226 lung = tested on: NCI-H226 lung
ACHN renal = tested on: ACHN renal
SF-268 CNS = tested on: SF-268 CNS
EKVX NSCLC = tested on: EKVX NSCLC
MCF7 breast = tested on: MCF7 breast
UACC-257 melanoma = tested on: UACC-257 melanoma
T-47D breast = tested on: T-47D breast
OVCAR-3 ovarian = tested on: OVCAR-3 ovarian
786-0 renal = tested on: 786-0 renal
CCRF-CEM leukemia = tested on: CCRF-CEM leukemia
U251 CNS = tested on: U251 CNS
TK-10 renal = tested on: TK-10 renal
RXF 393 renal = tested on: RXF 393 renal
HCT-15 colon = tested on: HCT-15 colon
MDA-MB-435 = tested on: MDA-MB-435
MALME-3M melanoma = tested on: MALME-3M melanoma
CAKI-1 renal = tested on: CAKI-1 renal
DU-145 prostate = tested on: DU-145 prostate
SF-539 CNS = tested on: SF-539 CNS
OVCAR-4 ovarian = tested on: OVCAR-4 ovarian
HOP-92 NSCLC = tested on: HOP-92 NSCLC
NCI/ADR-RES ovarian = tested on: NCI/ADR-RES ovarian
HL-60(TB) leukemia = tested on: HL-60(TB) leukemia
NCI-H460 lung = tested on: NCI-H460 lung
NCI-H522 lung = tested on: NCI-H522 lung
SK-MEL-2 melanoma = tested on: SK-MEL-2 melanoma
SK-MEL-5 melanoma = tested on: SK-MEL-5 melanoma
IGROV1 ovarian = tested on: IGROV1 ovarian
MDA-MB-231 breast = tested on: MDA-MB-231 breast
K-562 leukemia = tested on: K-562 leukemia
RPMI-8226 leukemia = tested on: RPMI-8226 leukemia
SW-620 colon = tested on: SW-620 colon
HCT-116 colon = tested on: HCT-116 colon
OVCAR-5 ovarian = tested on: OVCAR-5 ovarian
M14 melanoma = tested on: M14 melanoma
SNB-19 CNS = tested on: SNB-19 CNS
KM12 colon = tested on: KM12 colon
PC-3 prostate = tested on: PC-3 prostate
SK-MEL-28 melanoma = tested on: SK-MEL-28 melanoma
UO-31 renal = tested on: UO-31 renal
HCC-2998 colon = tested on: HCC-2998 colon
SN12C renal = tested on: SN12C renal
OVCAR-8 ovarian = tested on: OVCAR-8 ovarian
BT-549 breast = tested on: BT-549 breast

N#Cc1c(-c2cccs2)cc(-c2cnccn2)nc1SCC(=O)N/N=C/c1ccccc1
GI50 (SF-295 CNS): 4.92 µM
TGI (SF-295 CNS): 17.1 µM
GI50 (HT29 colon): 4.98 µM
TGI (HT29 colon): 21.3 µM
GI50 (UACC-62 melanoma): 8.67 µM
TGI (UACC-62 melanoma): 21 µM
GI50 (A549 NSCLC): 5.66 µM
TGI (A549 NSCLC): 20.2 µM
GI50 (COLO 205 colon): 11.3 µM
TGI (COLO 205 colon): > 100 µM
GI50 (SNB-75 CNS): 3.3 µM
TGI (SNB-75 CNS): 18.5 µM
GI50 (SR leukemia): 11.2 µM
TGI (SR leukemia): 35.8 µM
GI50 (A498 renal): 4.46 µM
TGI (A498 renal): 17.3 µM
GI50 (MOLT-4 leukemia): 47 µM
TGI (MOLT-4 leukemia): > 100 µM
GI50 (HOP-62 NSCLC): 3.2 µM
TGI (HOP-62 NSCLC): 11 µM
GI50 (HS 578T breast): 6.77 µM
TGI (HS 578T breast): 31.8 µM
GI50 (LOX IMVI melanoma): 2.8 µM
TGI (LOX IMVI melanoma): 10 µM
GI50 (SK-OV-3 ovarian): 14.7 µM
TGI (SK-OV-3 ovarian): 27.9 µM
GI50 (NCI-H226 lung): 3.41 µM
TGI (NCI-H226 lung): 12.9 µM
GI50 (ACHN renal): 6.14 µM
TGI (ACHN renal): 18.7 µM
GI50 (SF-268 CNS): 10.3 µM
TGI (SF-268 CNS): 24.6 µM
GI50 (EKVX NSCLC): 6.48 µM
TGI (EKVX NSCLC): 19.4 µM
GI50 (MCF7 breast): 3.52 µM
TGI (MCF7 breast): 14.8 µM
GI50 (UACC-257 melanoma): 15.1 µM
TGI (UACC-257 melanoma): 48.6 µM
GI50 (T-47D breast): 2.94 µM
TGI (T-47D breast): 15.7 µM
GI50 (OVCAR-3 ovarian): 3.88 µM
TGI (OVCAR-3 ovarian): 12.3 µM
GI50 (786-0 renal): 3.64 µM
TGI (786-0 renal): 14.4 µM
GI50 (CCRF-CEM leukemia): 49.9 µM
TGI (CCRF-CEM leukemia): > 100 µM
GI50 (U251 CNS): 3.43 µM
TGI (U251 CNS): 12.1 µM
GI50 (TK-10 renal): 4.51 µM
TGI (TK-10 renal): 15.3 µM
GI50 (RXF 393 renal): 2.5 µM
TGI (RXF 393 renal): 6.97 µM
GI50 (HCT-15 colon): 6.88 µM
TGI (HCT-15 colon): 27.4 µM
GI50 (MDA-MB-435): 4.49 µM
TGI (MDA-MB-435): 16.2 µM
GI50 (MALME-3M melanoma): 3.33 µM
TGI (MALME-3M melanoma): 9.49 µM
GI50 (CAKI-1 renal): 3.66 µM
TGI (CAKI-1 renal): 14.1 µM
GI50 (DU-145 prostate): 3.86 µM
TGI (DU-145 prostate): 12.7 µM
GI50 (SF-539 CNS): 6.64 µM
TGI (SF-539 CNS): 19.3 µM
GI50 (OVCAR-4 ovarian): 3.61 µM
TGI (OVCAR-4 ovarian): 15.3 µM
GI50 (HOP-92 NSCLC): 2.26 µM
TGI (HOP-92 NSCLC): 8.49 µM
GI50 (NCI/ADR-RES ovarian): 4.95 µM
TGI (NCI/ADR-RES ovarian): 16.7 µM
GI50 (HL-60(TB) leukemia): > 100 µM
TGI (HL-60(TB) leukemia): > 100 µM
GI50 (NCI-H460 lung): 3.93 µM
TGI (NCI-H460 lung): 13.3 µM
GI50 (NCI-H522 lung): 10.3 µM
TGI (NCI-H522 lung): 23.9 µM
GI50 (SK-MEL-2 melanoma): 10.3 µM
TGI (SK-MEL-2 melanoma): 23 µM
GI50 (SK-MEL-5 melanoma): 3.52 µM
TGI (SK-MEL-5 melanoma): 13 µM
GI50 (IGROV1 ovarian): 5.09 µM
TGI (IGROV1 ovarian): 17.3 µM
GI50 (MDA-MB-231 breast): 4.23 µM
TGI (MDA-MB-231 breast): 15.1 µM
GI50 (K-562 leukemia): 10.8 µM
TGI (K-562 leukemia): > 100 µM
GI50 (RPMI-8226 leukemia): 3.46 µM
TGI (RPMI-8226 leukemia): 20.9 µM
GI50 (SW-620 colon): 4.97 µM
TGI (SW-620 colon): 20.2 µM
GI50 (HCT-116 colon): 5.14 µM
TGI (HCT-116 colon): 17.3 µM
GI50 (OVCAR-5 ovarian): 10.4 µM
TGI (OVCAR-5 ovarian): 23.3 µM
GI50 (M14 melanoma): 4.98 µM
TGI (M14 melanoma): 16.4 µM
GI50 (SNB-19 CNS): 7.21 µM
TGI (SNB-19 CNS): 19.8 µM
GI50 (KM12 colon): 9.18 µM
TGI (KM12 colon): > 100 µM
GI50 (PC-3 prostate): 6.29 µM
TGI (PC-3 prostate): 19.2 µM
GI50 (SK-MEL-28 melanoma): 4.06 µM
TGI (SK-MEL-28 melanoma): 14.5 µM
GI50 (UO-31 renal): 6.1 µM
TGI (UO-31 renal): 19.6 µM
GI50 (HCC-2998 colon): 10.7 µM
TGI (HCC-2998 colon): 25.1 µM
GI50 (SN12C renal): 6.15 µM
TGI (SN12C renal): 18.8 µM
GI50 (OVCAR-8 ovarian): 6.01 µM
TGI (OVCAR-8 ovarian): 19.4 µM
GI50 (BT-549 breast): 8.31 µM
TGI (BT-549 breast): 20.7 µM
